Reference: ChEMBL document CHEMBL1275420, “Transfer of embB codon 306 mutations into clinical Mycobacterium tuberculosis strains alters susceptibility to ethambutol, isoniazid, and rifampin” (2008)
Values after ≈ are worked out from the molar mass of the structure shown.

Test system: Mycobacterium tuberculosis
Assay: Antimycobacterial activity against Mycobacterium tuberculosis isolate 210 at 37 degC after 10 to 11 days by radiometric Bactec 460TB method
Format: functional

Structure (SMILES)	MIC
CC[C@@H](CO)NCCN[C@@H](CC)CO [ETHAMBUTOL]	2 µg/mL (≈ 9.79 µM)
NNC(=O)c1ccncc1 [ISONIAZID]	0.05 µg/mL (≈ 0.365 µM)
CO[C@H]1/C=C/O[C@@]2(C)Oc3c(C)c(O)c4c(O)c(c(/C=N/N5CCN(C)CC5)c(O)c4c3C2=O)NC(=O)/C(C)=C\C=C\[C@H](C)[C@H](O)[C@@H](C)[C@@H](O)[C@@H](C)[C@H](OC(C)=O)[C@@H]1C [RIFAMPIN]	0.05 µg/mL (≈ 0.0608 µM)
